Reference: patent US11666594B2, “Antibody-drug conjugates comprising a cyclic dinucleotide” (TAKEDA PHARMACEUTICAL COMPANY LIMITED, priority 2016, dated 2023)
Counter-ions that a name gives are not always drawn.

biological target: WT STING (Homo sapiens (Human), UniProt Q86WV6, H232R); assay: Reporter gene assay (2): ISRE NanoLuc reporter in 293T cells, with digitonin, WT STING; type: cell-based; conditions: HEK-293T; 30 μM; digitonin; 2′,3′-cGAMP (30 μM) = 100%; read-out: activity level against WT STING of test compound (30 μM)
Sequence (Q86WV6 whole entry H232R): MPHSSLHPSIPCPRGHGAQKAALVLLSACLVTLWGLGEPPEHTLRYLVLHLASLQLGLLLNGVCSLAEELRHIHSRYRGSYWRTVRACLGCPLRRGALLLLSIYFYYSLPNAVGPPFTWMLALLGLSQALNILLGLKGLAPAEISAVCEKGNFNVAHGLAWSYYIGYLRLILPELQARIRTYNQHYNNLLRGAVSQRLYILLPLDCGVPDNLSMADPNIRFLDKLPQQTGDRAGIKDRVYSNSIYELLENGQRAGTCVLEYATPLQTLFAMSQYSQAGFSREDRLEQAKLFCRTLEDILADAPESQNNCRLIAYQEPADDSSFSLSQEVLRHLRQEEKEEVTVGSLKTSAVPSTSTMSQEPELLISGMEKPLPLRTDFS
Protocol: The culture solution was removed, and the test compound diluted with assay buffer (50 mM HEPES pH 7.0, 100 mM KCl, 3 mM MgCl2, 85 mM Sucrose, 0.1 mM DTT, 0.2% BSA, 1 mM ATP, 0.1 mM GTP, 10 μg/ml Digitonin) was added thereto by 15 μL/well. […] Luminescence signals derived from firefly luciferase and NanoLuc Luciferase were each measured using EnVision (PerkinElmer, Waltham, Mass., US) according to Nano-Glo Dual-Luciferase Reporter Assay System (Promega, Fitchburg, Wis., US) protocol. The ratio of the count of NanoLuc Luciferase divided by the count of firefly luciferase was used for culculation.

| Structure (SMILES) | activation at 30 µM [%] |
| --- | --- |
| Nc1ncnc2c1ncn2[C@@H]1O[C@@H]2COP(=O)(O)O[C@@H]3[C@H](O)[C@@H](COP(=O)(O)O[C@H]2[C@H]1F)O[C@H]3n1cc(F)c2c(=O)[nH]cnc21 [Example 1a, 7-((5R,7R,8R,12aR,14R,15R,15aR,16R)-14-(6-amino-9H-purin-9-yl)-15-fluoro-2,10,16-trihydroxy-2,10-dioxidooctahydro-12H-5,8-methanofuro[3,2-1][1,3,6,9,11,2,10]pentaoxadiphosphacyclotetradecin-7-yl)-5-fluoro-3,7-dihydro-4H-pyrrolo[2,3-d]pyrimidin-4-one disodium salt] | 99 |
| Nc1ncnc2c1ncn2[C@@H]1O[C@@]23CO[C@@H]1[C@@H]2OP(=O)(O)OC[C@H]1O[C@@H](n2cc(F)c4c(=O)[nH]cnc42)[C@H](OP(=O)(O)OC3)[C@@H]1O [Example 16, 7-((5R,7R,8R,12aR,14R,15R,15aS,18R)-14-(6-amino-9H-purin-9-yl)-2,10,18-trihydroxy-2,10-dioxidohexahydro-14H-15,12a-(epoxymethano)-5,8-methanofuro[3,2-1][1,3,6,9,11,2,10]pentaoxadiphosphacyclotetradecin-7(12H)-yl)-5-fluoro-3,7-dihydro-4H-pyrrolo[2,3-d]pyrimidin-4-one di-triethylamine salt] | 114 |
| Nc1ncnc2c1ncn2[C@@H]1O[C@@H]2COP(=O)(O)O[C@@H]3[C@H](O)[C@@H](COP(=O)(O)O[C@H]2[C@H]1F)O[C@H]3n1cc(F)c2c(=O)[nH]cnc21 [Example 1, 7-((5R,7R,8R,12aR,14R,15R,15aR,16R)-14-(6-amino-9H-purin-9-yl)-15-fluoro-2,10,16-trihydroxy-2,10-dioxidooctahydro-12H-5,8-methanofuro[3,2-1][1,3,6,9,11,2,10]pentaoxadiphosphacyclotetradecin-7-yl)-5-fluoro-3,7-dihydro-4H-pyrrolo[2,3-d]pyrimidin-4-one di-triethylamine salt] | 97 |

same assay, conditions: HEK-293T; read-out: activity level against WT STING of test compound (30 μM)

| Structure (SMILES) | activation at 30 µM [%] |
| --- | --- |
| Nc1nc2c(ncn2[C@@H]2O[C@@H]3COP(=O)(O)O[C@H]4[C@@H](O)[C@H](c5cnn6c(N)ncnc56)O[C@@H]4COP(=O)(O)O[C@@H]2[C@@H]3O)c(=O)[nH]1 [Example 13, 2-amino-9-((5R,7R,8R,12aR,14S,15S,15aS,16R)-14-(4-aminopyrazolo[1,5-a][1,3,5]triazin-8-yl)-2,10,15,16-tetrahydroxy-2,10-dioxidooctahydro-12H-5,8-methanofuro[3,2-1][1,3,6,9,11,2,10]pentaoxadiphosphacyclotetradecin-7-yl)-1,9-dihydro-6H-purin-6-one di-triethylamine salt] | 99 |
| Nc1nc2c(ncn2[C@@H]2O[C@@H]3COP(=O)(O)O[C@@H]4[C@H](O)[C@@H](COP(=O)(O)O[C@H]3[C@H]2F)O[C@H]4n2cc(F)c3c(=O)[nH]cnc32)c(=O)[nH]1 [Example 19, 2-amino-9-((5R,7R,8R,12aR,14R,15R,15aR,16R)-15-fluoro-7-(5-fluoro-4-oxo-3,4-dihydro-7H-pyrrolo[2,3-d]pyrimidin-7-yl)-2,10,16-trihydroxy-2,10-dioxidooctahydro-12H-5,8-methanofuro[3,2-1][1,3,6,9,11,2,10]pentaoxadiphosphacyclotetradecin-14-yl)-1,9-dihydro-6H-purin-6-one di-triethylamine salt] | 101 |
| Nc1ncnc2c1ncn2[C@@H]1O[C@@]23CO[C@@H]1[C@@H]2OP(=O)(S)OC[C@H]1O[C@@H](n2cc(F)c4c(=O)[nH]cnc42)[C@H](OP(=O)(O)OC3)[C@@H]1O (stereo partly drawn) [Example 17, 7-((5R,7R,8R,12aR,14R,15R,15aS,18R)-14-(6-amino-9H-purin-9-yl)-10,18-dihydroxy-2,10-dioxido-2-sulfanylhexahydro-14H-15,12a-(epoxymethano)-5,8-methanofuro[3,2-1][1,3,6,9,11,2,10]pentaoxadiphosphacyclotetradecin-7(12H)-yl)-5-fluoro-3,7-dihydro-4H-pyrrolo[2,3-d]pyrimidin-4-one di-trimethylamine salt] | 110 |
